Measured values published in paper PMC8200818, “SPECT/CT Imaging, Biodistribution and Radiation Dosimetry of a ^177Lu-DOTA-Integrin αvβ6 Cystine Knot Peptide in a Pancreatic Cancer Xenograft Model” (Frontiers in Oncology, 2021).

Key:
[1] = molecular target: T1, integrin αvβ6 (BxPC-3 cells) (Homo sapiens, UniProt P06756+P18564); experiment: Competition binding assay, BxPC-3; conditions: BxPC-3
T1 construct: endogenous in cells; host or cells: BxPC-3 (whole adherent cells)
Protocol: (§1) The reaction volume was made up to 30 µl with water. The reaction was carried out for 10 minutes at 80°C.
(§2) For competitive radioligand binding assay, approximately 50,000 cells (BxPC-3 or Capan-2) per well were seeded in a 96 well plate incubated overnight at 37°C. […] After 2 hours of incubation, cells were washed for 2-3 times with ice-cold washing buffer (50 mM Tris-HCl, pH 7.4, 125 mM NaCl, 0.05% BSA) and lysed with 1 N NaOH (80 µl/well). The lysed cells were transferred to vials and measured in a gamma counter (Wallac 1470 Wizard, Perkin Elmer, Waltham, MA, USA). Obtained cpm values were plotted with GraphPad Prism and the data fitted using nonlinear regression (one site - fit Ki, one site - fit logIC50).
(§3) All statistical analyses were performed using GraphPad Prism 5.04. IC50 values were determined by nonlinear sigmoidal curve fitting with variable slope setting. All presented data are based on independent experiments. Numerical data for this study have been deposited in an open data repository for public access: http://doi.org/10.5281/zenodo.4362503.

[2] = molecular target: T2, integrin αvβ6 (Capan-2 cells) (Homo sapiens, UniProt P06756+P18564); experiment: Competition binding assay, Capan-2
T2 construct: endogenous in cells; host or cells: Capan-2 (whole adherent cells)
T2 sequence (P06756 31-889 limits assumed): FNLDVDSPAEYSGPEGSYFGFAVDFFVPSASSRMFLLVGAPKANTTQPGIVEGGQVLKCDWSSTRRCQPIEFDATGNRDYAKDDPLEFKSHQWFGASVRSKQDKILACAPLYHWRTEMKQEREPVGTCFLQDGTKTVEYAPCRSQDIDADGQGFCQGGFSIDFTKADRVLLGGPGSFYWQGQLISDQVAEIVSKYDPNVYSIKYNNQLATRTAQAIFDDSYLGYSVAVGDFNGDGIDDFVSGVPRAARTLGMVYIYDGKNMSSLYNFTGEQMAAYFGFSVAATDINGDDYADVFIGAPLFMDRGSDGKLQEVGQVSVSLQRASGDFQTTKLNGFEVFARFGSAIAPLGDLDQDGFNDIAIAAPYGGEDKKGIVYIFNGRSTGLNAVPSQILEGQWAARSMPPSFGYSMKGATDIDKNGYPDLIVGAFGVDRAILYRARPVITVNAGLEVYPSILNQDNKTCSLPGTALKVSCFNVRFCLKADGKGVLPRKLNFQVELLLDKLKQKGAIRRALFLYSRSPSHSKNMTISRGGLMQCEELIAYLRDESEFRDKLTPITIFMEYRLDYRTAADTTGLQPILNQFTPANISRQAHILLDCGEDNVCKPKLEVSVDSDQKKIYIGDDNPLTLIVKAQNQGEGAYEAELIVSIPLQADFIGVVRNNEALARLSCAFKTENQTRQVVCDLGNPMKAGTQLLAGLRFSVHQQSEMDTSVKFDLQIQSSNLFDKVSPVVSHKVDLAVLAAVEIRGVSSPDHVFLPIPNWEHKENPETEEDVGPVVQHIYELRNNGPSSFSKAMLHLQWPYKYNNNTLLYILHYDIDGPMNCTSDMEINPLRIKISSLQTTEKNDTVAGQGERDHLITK
T2 sequence (P06756 891-1048 partner limits assumed): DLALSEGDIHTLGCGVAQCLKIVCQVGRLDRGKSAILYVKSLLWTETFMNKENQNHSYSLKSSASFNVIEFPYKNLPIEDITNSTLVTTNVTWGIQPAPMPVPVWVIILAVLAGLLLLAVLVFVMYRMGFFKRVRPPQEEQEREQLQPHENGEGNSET
T2 sequence (P18564 22-788): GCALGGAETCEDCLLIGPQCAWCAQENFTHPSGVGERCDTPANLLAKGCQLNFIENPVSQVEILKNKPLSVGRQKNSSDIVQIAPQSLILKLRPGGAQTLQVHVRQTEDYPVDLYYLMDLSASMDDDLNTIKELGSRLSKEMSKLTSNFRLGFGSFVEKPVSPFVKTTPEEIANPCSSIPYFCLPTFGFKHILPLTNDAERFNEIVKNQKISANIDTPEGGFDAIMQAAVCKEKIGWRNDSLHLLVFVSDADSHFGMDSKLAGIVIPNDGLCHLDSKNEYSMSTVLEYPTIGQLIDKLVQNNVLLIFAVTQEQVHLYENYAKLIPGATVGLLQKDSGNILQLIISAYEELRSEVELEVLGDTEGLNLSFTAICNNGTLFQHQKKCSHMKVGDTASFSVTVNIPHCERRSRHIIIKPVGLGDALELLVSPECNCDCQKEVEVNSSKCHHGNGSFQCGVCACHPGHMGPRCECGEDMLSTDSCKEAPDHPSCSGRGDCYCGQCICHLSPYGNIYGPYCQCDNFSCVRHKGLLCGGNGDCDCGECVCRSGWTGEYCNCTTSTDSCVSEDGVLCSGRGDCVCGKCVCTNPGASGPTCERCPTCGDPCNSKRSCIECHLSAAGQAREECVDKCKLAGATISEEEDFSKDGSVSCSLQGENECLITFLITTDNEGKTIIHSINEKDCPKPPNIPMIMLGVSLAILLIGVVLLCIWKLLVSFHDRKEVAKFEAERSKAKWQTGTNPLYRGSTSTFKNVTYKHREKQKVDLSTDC
Protocol: as §1, §2, §3

integrin αvβ6 = conditions: cited from earlier work
Excerpt: Cystine knot peptides (knottins) represent small peptides of approximately 4 kDa with three threaded disulfide bonds that form a rigid topological knot constraining the peptide’s conformational flexibility. Such a structural motif is known as a cystine knot ([21], [22]). One of the advantages of knottins is the high variability of backbone residues that may be used to modulate tumor and kidney uptake ([23]). Knottins are well suited for in vivo tumor-targeting applications as their disulfide-bonded core confers outstanding thermal stability and resistance against proteolytic degradation; moreo ...

[3] = cited from earlier work
Capan-2 xenografts = conditions: day 1 versus day 8 after injection; single dose; listed as DOTA-integrin αvβ6 knottin
[4] = displacement of ^125I-DOTA-integrin αvβ6 knottin (100,000 cpm), 2 h, pH 7.4, mean ± S.E.M. (3 ≤ n ≤ 4), read-out: Inhibitory constant (Ki)

T1 sequence (P06756 31-889 limits assumed): as the sequence (P06756 31-889 limits assumed) above
T1 sequence (P06756 891-1048 partner limits assumed): as the sequence (P06756 891-1048 partner limits assumed) above
T1 sequence (P18564 22-788): as the sequence (P18564 22-788) above

## CC[C@H](C)[C@@H]1NC(=O)[C@@H](NC(=O)CNC(=O)CN2CCN(CC(=O)O)CCN(CC(=O)O)CCN(CC(=O)O)CC2)CSSC[C@@H]2NC(=O)[C@H](C)NC(=O)CNC(=O)[C@@H]3CCCN3C(=O)[C@@H]3CSSC[C@@H](C(=O)NCC(=O)O)NC(=O)[C@H](Cc4ccc(O)cc4)NC(=O)CNC(=O)[C@H](CC(N)=O)NC(=O)CNC(=O)[C@H](CCCNC(=N)N)NC(=O)[C@H](CSSC[C@H](NC(=O)[C@H](CCCNC(=N)N)NC(=O)[C@H](Cc4ccccc4)NC(=O)[C@H](CC(C)C)NC(=O)[C@H](CC(C)C)NC(=O)[C@H]([C@@H](C)O)NC(=O)CNC(=O)[C@H](CC(C)C)NC(=O)[C@H](CC(=O)O)NC(=O)[C@H]([C@@H](C)O)NC(=O)[C@H](CCCNC(=N)N)NC(=O)CNC(=O)[C@H](CC(N)=O)NC(=O)[C@H](CC(C)C)NC1=O)C(=O)N[C@@H](CCCNC(=N)N)C(=O)N[C@@H](CCCNC(=N)N)C(=O)N[C@@H](CC(=O)O)C(=O)N[C@@H](CO)C(=O)N[C@@H](CC(=O)O)C(=O)N3)NC(=O)[C@H]([C@@H](C)CC)NC2=O [^natLu DOTA knottin, metal not drawn]
[1]
  Effect of DOTA / ^natLu chelation on affinity: did not compromise the high affinity of the tracer
[2]
  Effect of DOTA / ^natLu chelation on affinity: did not compromise the high affinity of the tracer

## CC[C@H](C)[C@@H]1NC(=O)[C@@H](NC(=O)CN)CSSC[C@@H]2NC(=O)[C@H](C)NC(=O)CNC(=O)[C@@H]3CCCN3C(=O)[C@@H]3CSSC[C@@H](C(=O)NCC(=O)O)NC(=O)[C@H](Cc4ccc(O)cc4)NC(=O)CNC(=O)[C@H](CC(N)=O)NC(=O)CNC(=O)[C@H](CCCNC(=N)N)NC(=O)[C@H](CSSC[C@H](NC(=O)[C@H](CCCNC(=N)N)NC(=O)[C@H](Cc4ccccc4)NC(=O)[C@H](CC(C)C)NC(=O)[C@H](CC(C)C)NC(=O)[C@H]([C@@H](C)O)NC(=O)CNC(=O)[C@H](CC(C)C)NC(=O)[C@H](CC(=O)O)NC(=O)[C@H]([C@@H](C)O)NC(=O)[C@H](CCCNC(=N)N)NC(=O)CNC(=O)[C@H](CC(N)=O)NC(=O)[C@H](CC(C)C)NC1=O)C(=O)N[C@@H](CCCNC(=N)N)C(=O)N[C@@H](CCCNC(=N)N)C(=O)N[C@@H](CC(=O)O)C(=O)N[C@@H](CO)C(=O)N[C@@H](CC(=O)O)C(=O)N3)NC(=O)[C@H]([C@@H](C)CC)NC2=O [knottin]
[1]
  Effect of DOTA / ^natLu chelation on affinity: did not change upon either the addition of a DOTA chelator moiety or incorporation of natural non-radioactive lutetium
[2]
  Effect of DOTA / ^natLu chelation on affinity: did not change upon either the addition of a DOTA chelator moiety or incorporation of natural non-radioactive lutetium
Integrin αvβ6
  Binding affinity for integrin αvβ6: low single-digit nanomolar binding affinity
[3]
  Stability and affinity to the receptor in vivo: not compromised in vivo
[3]; in vivo
  Tumor uptake (previous): favorable tumor uptake

## CC[C@H](C)[C@@H]1NC(=O)[C@@H](NC(=O)CNC(=O)CN2CCN(CC(=O)O)CCN(CC(=O)O)CCN(CC(=O)O)CC2)CSSC[C@@H]2NC(=O)[C@H](C)NC(=O)CNC(=O)[C@@H]3CCCN3C(=O)[C@@H]3CSSC[C@@H](C(=O)NCC(=O)O)NC(=O)[C@H](Cc4ccc(O)cc4)NC(=O)CNC(=O)[C@H](CC(N)=O)NC(=O)CNC(=O)[C@H](CCCNC(=N)N)NC(=O)[C@H](CSSC[C@H](NC(=O)[C@H](CCCNC(=N)N)NC(=O)[C@H](Cc4ccccc4)NC(=O)[C@H](CC(C)C)NC(=O)[C@H](CC(C)C)NC(=O)[C@H]([C@@H](C)O)NC(=O)CNC(=O)[C@H](CC(C)C)NC(=O)[C@H](CC(=O)O)NC(=O)[C@H]([C@@H](C)O)NC(=O)[C@H](CCCNC(=N)N)NC(=O)CNC(=O)[C@H](CC(N)=O)NC(=O)[C@H](CC(C)C)NC1=O)C(=O)N[C@@H](CCCNC(=N)N)C(=O)N[C@@H](CCCNC(=N)N)C(=O)N[C@@H](CC(=O)O)C(=O)N[C@@H](CO)C(=O)N[C@@H](CC(=O)O)C(=O)N3)NC(=O)[C@H]([C@@H](C)CC)NC2=O [DOTA knottin]
[1]; [4]
  Ki: 1.69 ± 1.3 nM
[2]; [4]
  Ki: 9.46 ± 5.21 nM
Capan-2 xenografts
  Tissue structure of xenografts (H&E): no significant impact was observed
